Non-standard residues stand in square brackets, D forms with d. Residues, ends and D or L forms follow the SMILES beside them. *: point of attachment. Dolaproine = CO[C@@H]([C@@H]1CCCN1)[C@@H](C)C(=O)O; Dil = CC[C@H](C)[C@H](NC)[C@@H](CC(=O)O)OC; X1 = C[C@@H](N*)[C@@H](O)c1ccccc1; NMeV = CN[C@H](C(=O)O)C(C)C
Key:
[1] = Toxicity of IgG-MMAE, F(ab')2-MMAE conjugates and free MMAE in rats (Example 3); type: in vivo, Female Spraque-Dawley (SD) rats
Experimental: Female Spraque-Dawley (SD) rats weighing between 75-80 grams (Charles River Laboratories, Hollister, Calif.) were used in the following studies to compare the toxicity of free MMAE, Fab-MMAE and F(ab′)2-MMAE conjugates.
The body surface area was calculated as follows: [{(body weight in grams to 0.667 power)×11.8}/10000]. (Guidance for Industry and Reviewers. Estimating the Safety Starting Dose in Clinical Trials for Therapeutics in Adult Healthy Volunteers. U.S. Department of Health and Human Services Food and Drug Administration, Center for Drug Evaluation and Research (CDER), Center for Biologics Evaluation and research (CBER), December 2002).
General clinical observations were performed daily. Morbidity and mortality checks were performed twice daily (AM and PM). The body weights of the animals were measured pre-dose on Study Day 1 and daily thereafter. Whole blood was collected into EDTA containing tubes for hematology parameters (e.g., mean serum AST levels, ALT levels, GGT levels and billirubin levels) and differential cell counts (e.g., mean white blood cell counts and platelet counts). Whole blood was collected into serum separator tubes for clinical chemistry parameters. Blood samples were collected pre-dose on Study Day-4, on Study Day 3 and on Day 5 at necropsy. Whole blood was also collected into lithium heparin containing tubes at necropsy and the plasma was frozen at −70° C. for later analysis. The following tissues were collected at necropsy: liver, kidneys, heart, thymus, spleen, brain, sternum and sections of the GI tract, including stomach, large and small intestine. At necropsy, only spleen and thymus were weighed. All statistical analyses were done on Day 5 body weights using a One Way ANOVA, Tukey's test, (SigmaStat 2.03 Software).

[2] = tested on: MMTV-HER2 transgenic mammary tumors (Fo5); conditions: established MMTV-HER2 transgenic mammary tumors (Fo5)
Experimental: Log Cell Kill analyses based on tumor doubling times were conducted. The Log Cell Kill analysis uses a mathematical computation of tumor growth delay based on the time it takes for tumors to double in size after treatment begins compared to controls.

[3] = 2105 μg MMAE/m2, day 3 (Herceptin-vc-MMAE days 3 and 5)
[4] = 2105 μg MMAE/m2 single iv bolus

| Molecule | morphologic changes (histology) ([1]; 2105 μg MMAE/m2) | liver associated serum enzymes / liver function tests [1, 3] | platelet and white blood cell counts [1, 3] | body weight lost by Day 3 compared with Day 1 weights [1, 4] [grams] | weight loss, comparison between groups [1, 4] | clinical observations ([1]; 2105 μg MMAE/m2 single iv bolus, Study Day 3) | response of the Fo5 tumor line [2] |
| --- | --- | --- | --- | --- | --- | --- | --- |
| CC[C@H](C)[C@@H]([C@@H](CC(=O)N1CCC[C@H]1[C@H](OC)[C@@H](C)C(=O)N[C@H](C)[C@@H](O)c1ccccc1)OC)N(C)C(=O)[C@@H](NC(=O)[C@@H](NC)C(C)C)C(C)C [free MMAE, monomethylauristatin] (H-[NMeV]V[Dil][Dolaproine]-X1) | most severe | highest elevations in liver associated serum enzymes ALT, AST and GGT | lowest platelet and white blood cell counts | 12 | comparable weight loss | moribund | – |
| Herceptin® | – | – | – | – | – | – | non-responsive |
